Assay results from PubChem BioAssay AID2060356 (Molecular Pharmacology Branch, DTP, NCI, 2025).
“And” between values parts separate entries of the source, which are not always exact repeats. Equal values may be shown once.

Test system: PDC tumor spheroids with HUVEC/MSC, viability
Test: Anticancer human tumor 439559-082-T-J2-PDC patient-derived colon adenocarcinoma cell line growth inhibition [TAK]
Settings: for viability, T/C: stronger effect = lower value
From the text: Combinatorial screen of targeted agents with TAK-243 and ipatasertib in multi-cell type tumor spheroids
A high-throughput screen of multi-cell type tumor spheroids was designed to identify active combinations of targeted small molecules and TAK-243 or ipatasertib. Complex spheroids include a stromal component modeled by human endothelial cells (HUVEC) and fibroblasts modeled by human mesenchymal stem cells (MSCs). The concentration ranges selected for each drug and investigational agent were based upon clinically achievable concentrations if the clinical Cmax of the agent was known.
Compounds. The drugs and investigational agents: TAK-243 (785004), ipatasertib (767898), everolimus (733504), selumetinib (741078), bortezomib (756655), trametinib (758246), ixazomib (758254), vemurafenib (761431), dabrafenib (764134), sapanisertib (764658), alpelisib (765974), and copanlisib (816437), were obtained from the National Cancer Institute (NCI) Developmental Therapeutics Program Chemical Repository. The FDA-approved anticancer drug set is available from the NCI Developmental Therapeutics Program. […] The stock solutions were prepared in dimethyl sulfoxide (DMSO, Sigma-Aldrich, St. Louis, MO, cat. D2650) at 800-fold the tested concentration and stored at -70 degrees C prior to their use. All drugs and investigational agents were tested over a range starting from a high concentration at or near the clinical Cmax and decreasing in half-log increments. If the clinical Cmax for an agent had not been determined, the highest concentration tested was 10 microM.
NCI60 Cell Culture. NCI60 cell lines were obtained from the NCI Developmental Therapeutics Program Tumor Repository. For each lot of cells, the Repository performed Applied Biosystems AmpFLSTR Identifiler testing with PCR amplification to confirm consistency with the published Identifier STR profile for each cell line. Cells were kept in continuous culture for no more than 20 passages. The optimal seeding densities for each of the cell lines at each time point assessed were determined prior to performing the concentration response studies. Briefly, the NCI60 human tumor lines were grown as monolayers in RPMI 1640 medium supplemented with 10% FBS and 2 mmol/L L-glutamine.
An additional 2 lines were from the NCI60 cell line panel including melanomas, MALME-3M and SK-MEL-2. Pooled donor human umbilical vein endothelial cells (HUVEC, Lonza, cat. CC-2519) and human mesenchymal stem cells (hMSC, Lonza, cat. PT-2501) were purchased from Lonza (Walkersville, MD).
PDMR cell lines were grown in complete medium (DC medium): Dulbecco's modified Eagle's medium (DMEM)/F12 supplemented with 5% fetal bovine serum (FBS), 2 mM L-glutamine, 100 U/mL penicillin and 100 µg/ml streptomycin, 0.4 µg/ml hydrocortisone, 10 ng/ml epidermal growth factor (EGF) recombinant human protein, 24 µg/mL adenine, and 0.1 mg/mL primocin. During culture from frozen stock vials, PDMR cells were cultured in the same medium containing 10 µM Y-27632 (see Table 3). The PDCs were cultured in complete DMEM/F12 media without 10 microM Y-27632 dihydrochloride for at least two passages prior to the screen. The pooled donor HUVEC and hMSC were cultured in endothelial cell growth medium 2 (PromoCell, Heidelberg, Germany, cat. C-22011) and mesenchymal stem cell growth medium 2 (PromoCell, cat. C-28009), respectively. For all experiments, HUVEC and hMSC were used at passages </=5.
For the pre-screen, cell seeding densities were determined from a titration spanning the range from 5,000 to 313 cells per well. The mct-spheroids including 60% malignant cells, 25% HUVEC and 15% MSC dispensed as a mixture into U-bottom Ultra-Low Attachment 384-well plates (Corning, NY)
High-throughput Drug Combination Screening.
Prior to their inoculation into 384-well plates, malignant cells, HUVEC, and hMSC were removed from T flasks using TrypLE express (Thermo Fisher Scientific, cat. 12605036) and harvested by centrifugation for 5 min at 233 x g. […]
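Note: spheroids exposed to drugs for seven days before readout.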

SMILES: Cn1cnc2c(F)c(Nc3ccc(Br)cc3Cl)c(C(=O)NOCCO)cc21 + CC(C)NCC(C(=O)N1CCN(c2ncnc3c2C(C)CC3O)CC1)c1ccc(Cl)cc1
- IC50 (curve of first compound, second compound 0.3 µM): > 3 µM
- IC50 (curve of first compound, second compound 0.949 µM): > 3 µM
- IC50 (curve of first compound, second compound 3 µM): > 3 µM
- IC50 (curve of first compound, second compound 9.49 µM): > 3 µM
- IC50 (curve of first compound, second compound 30 µM): > 3 µM
- viability, T/C (second compound 0.3 µM, first compound 0.00949 µM): 92.4%
- viability, T/C (second compound 0.3 µM, first compound 0.03 µM): 82.1%
- viability, T/C (second compound 0.3 µM, first compound 0.0949 µM): 80.9%
- viability, T/C (second compound 0.3 µM, first compound 0.3 µM): 76.3%
- viability, T/C (second compound 0.3 µM, first compound 0.949 µM): 68.9%
- viability, T/C (second compound 0.3 µM, first compound 3 µM): 65.7%
- viability, T/C (second compound 0.949 µM, first compound 0.00949 µM): 104%
- viability, T/C (second compound 0.949 µM, first compound 0.03 µM): 97.4%
- viability, T/C (second compound 0.949 µM, first compound 0.0949 µM): 81%
- viability, T/C (second compound 0.949 µM, first compound 0.3 µM): 77.2%
- viability, T/C (second compound 0.949 µM, first compound 0.949 µM): 67.9%
- viability, T/C (second compound 0.949 µM, first compound 3 µM): 69.4%
- viability, T/C (second compound 3 µM, first compound 0.00949 µM): 102%
- viability, T/C (second compound 3 µM, first compound 0.03 µM): 99.8%
- viability, T/C (second compound 3 µM, first compound 0.0949 µM): 80.2%
- viability, T/C (second compound 3 µM, first compound 0.3 µM): 68.2%
- viability, T/C (second compound 3 µM, first compound 0.949 µM): 72%
- viability, T/C (second compound 3 µM, first compound 3 µM): 63.3%
- viability, T/C (second compound 9.49 µM, first compound 0.00949 µM): 99.2%
- viability, T/C (second compound 9.49 µM, first compound 0.03 µM): 91.7%
- viability, T/C (second compound 9.49 µM, first compound 0.0949 µM): 83.9%
- viability, T/C (second compound 9.49 µM, first compound 0.3 µM): 72%
- viability, T/C (second compound 9.49 µM, first compound 0.949 µM): 70.5%
- viability, T/C (second compound 9.49 µM, first compound 3 µM): 64.7%
- viability, T/C (second compound 30 µM, first compound 0.00949 µM): 93.6%
- viability, T/C (second compound 30 µM, first compound 0.03 µM): 89.7%
- viability, T/C (second compound 30 µM, first compound 0.0949 µM): 85.4%
- viability, T/C (second compound 30 µM, first compound 0.3 µM): 75.2%
- viability, T/C (second compound 30 µM, first compound 0.949 µM): 69.5%
- viability, T/C (second compound 30 µM, first compound 3 µM): 66.3%

SMILES: CC(C)n1nc(-c2ccc3oc(N)nc3c2)c2c(N)ncnc21
- viability, T/C (compound 0.000316 µM): 106% and 115%
- viability, T/C (compound 0.001 µM): 99.2% and 110%
- viability, T/C (compound 0.00316 µM): 97.8% and 105%
- viability, T/C (compound 0.01 µM): 83.5% and 85.3%
- viability, T/C (compound 0.0316 µM): 76% and 76.8%
- viability, T/C (compound 0.1 µM): 69.8% and 74.7%
- IC50 (curve of compound): > 0.1 µM

SMILES: CC(C)CC(NC(=O)C(Cc1ccccc1)NC(=O)c1cnccn1)B(O)O (centres undefined)
- viability, T/C (compound 31.6 pM): 111% and 105%
- viability, T/C (compound 0.0001 µM): 104% and 98.9%
- viability, T/C (compound 0.000316 µM): 102% and 98.8%
- viability, T/C (compound 0.001 µM): 103% and 101%
- viability, T/C (compound 0.00316 µM): 100% and 97.5%
- viability, T/C (compound 0.01 µM): 66.4% and 69.6%
- IC50 (curve of compound): > 0.01 µM
